# Laboratory results from publication PMC6934184, “Selective DNA-PKcs inhibition extends the therapeutic index of localized radiotherapy and chemotherapy” (The Journal of Clinical Investigation, 2019).
# Molecular target: T1, CDK5/p35 (Homo sapiens, UniProt Q00535)
# T1 construct: purchased Thermo Fisher Scientific (Life Technologies) SelectScreen
# Experiment: SelectScreen Z'LYTE
# Assay type: biochemical
# Method in brief: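 Percent values come from Thermo SelectScreen profiling of NU5455, combining activity and binding assays. CSF1R was run in Z'LYTE format at Km app ATP, and CAMK1 in Adapta format with ATP listed at 10.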
# T1 sequence (Q00535 whole entry): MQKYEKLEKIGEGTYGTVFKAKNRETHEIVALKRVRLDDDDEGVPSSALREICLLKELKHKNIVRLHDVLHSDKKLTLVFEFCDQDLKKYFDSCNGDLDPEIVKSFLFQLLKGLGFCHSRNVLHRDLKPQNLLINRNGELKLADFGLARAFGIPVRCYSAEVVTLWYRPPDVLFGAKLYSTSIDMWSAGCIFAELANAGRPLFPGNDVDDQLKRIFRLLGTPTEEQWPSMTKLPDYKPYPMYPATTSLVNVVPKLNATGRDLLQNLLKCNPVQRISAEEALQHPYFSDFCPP
# T1 sequence (Q15078 whole entry partner): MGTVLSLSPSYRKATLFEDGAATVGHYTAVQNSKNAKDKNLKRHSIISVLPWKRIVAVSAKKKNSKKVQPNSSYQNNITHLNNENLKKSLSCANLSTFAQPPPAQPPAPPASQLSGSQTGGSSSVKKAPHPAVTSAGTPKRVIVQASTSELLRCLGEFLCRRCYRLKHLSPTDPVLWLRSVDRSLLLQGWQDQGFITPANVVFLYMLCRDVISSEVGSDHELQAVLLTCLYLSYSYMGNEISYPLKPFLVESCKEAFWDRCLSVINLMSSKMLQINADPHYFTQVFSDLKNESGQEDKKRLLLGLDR
smiles,measurement,value
CN(C(=O)CN1CCOCC1)c1ccc2sc3c(-c4cccc5c(=O)cc(N6CC7CCC(C6)O7)oc45)cccc3c2c1 [NU5455],inhibition at 1 µM,-8.6%
